In PubChem BioAssay (NCI) one finds TGI and GI50 data, which are given here for 30 molecules.

Several values for one entry are separate records, joined by “and”; a condition that tells them apart may be missing. Identical values can stand only once.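 Growth conditions: 96-well plates. Treatment: test compound, 48 hours, 5 concentrations. Analysis: linear interpolation between bracketing concentrations; unreached endpoints set to highest concentration. GI50 marks 50% less growth. TGI: concentration producing complete growth inhibition.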 A value given as a limit tells only on which side of the number the result lay.

Among the test systems are DMS 273 small cell lung; DLD-1 colon; KM20L2 colon; RXF-631 renal; XF 498 CNS; LXFL 529 NSCLC; HOP-18 NSCLC; SNB-78 CNS; MDA-N; P388/ADR leukemia; P388 leukemia; SN12K1 renal.
What all share (test): NCI tumour cell line growth inhibition, 48 h

In the case of `O=C(Nc1ccc([N+](=O)[O-])cc1C(=O)O)c1ccc([N+](=O)[O-])cc1`, the TGI with DMS 273 small cell lung was > 100 µM; with DLD-1 colon, > 100 µM; with KM20L2 colon it was 64.9 µM; in the experiment on RXF-631 renal, > 100 µM; in the experiment with XF 498 CNS it was > 100 µM; in the experiment on LXFL 529 NSCLC it was > 100 µM.
Consider `CCC[CH2][Sn]1([CH2]CCC)[O]C(=O)c2cccc(OC)c2[O]1`, for which the GI50 is 0.569 µM with DMS 273 small cell lung; 0.244 µM in the experiment on DLD-1 colon; 1.33 µM in the experiment on KM20L2 colon; 0.687 µM in the experiment on HOP-18 NSCLC; 0.093 µM in the experiment with SNB-78 CNS; 0.131 µM with XF 498 CNS. For the same molecule, the GI50 with LXFL 529 NSCLC was 0.0427 µM. Also, the TGI with DMS 273 small cell lung is 1.96 µM; in the experiment on DLD-1 colon, 0.986 µM; in the experiment on KM20L2 colon, 2.68 µM; with HOP-18 NSCLC, 1.95 µM; in the experiment on SNB-78 CNS it was 0.959 µM; in the experiment with XF 498 CNS, 0.28 µM. Moreover, the TGI in the experiment with LXFL 529 NSCLC is 0.212 µM.
As for `COCOCc1cc(OCc2ccccc2)c(OC)cc1Br`, the TGI with DMS 273 small cell lung, in the experiment with DLD-1 colon, in the experiment on KM20L2 colon, with HOP-18 NSCLC, in the experiment on SNB-78 CNS and in the experiment with XF 498 CNS was > 100 µM in each case.
For the molecule `CN(C)c1ccc(/C=C/c2ccnc3ccccc23)cc1N`, in the experiment with MDA-N, the TGI amounted to 12 µM.
As to `N#Cc1c(-c2ccc(Cl)cc2)c(-c2ccc(Cl)cc2)nn(CCOC(=O)CCC(=O)O)c1=O`, the TGI was 14.7 µM in the experiment on DMS 273 small cell lung; > 100 µM with DLD-1 colon; 4.89 µM in the experiment on KM20L2 colon; > 100 µM in the experiment on HOP-18 NSCLC; > 100 µM in the experiment on LXFL 529 NSCLC; 0.202 µM in the experiment on MDA-N.
`CCCC(=O)Nc1cc([N+](=O)[O-])c([N+](=O)[O-])cc1OC` showed a TGI with MDA-N of 30.6 µM.
Consider `Nc1nc(Cl)c(N=Nc2ccc(Cl)cc2)c(NCC2(CO)CC(OCc3ccccc3)C2)n1` (centres undefined), for which, in the experiment with MDA-N, the GI50 was 29.5 µM and > 100 µM and 11.8 µM; the TGI was > 100 µM.
In the case of `O=C(CC/C(CC(=O)c1ccc(Cl)cc1)=N/O)Nc1ccc(Cl)c(Cl)c1`, the TGI in the experiment with DMS 273 small cell lung, with DLD-1 colon, in the experiment on KM20L2 colon, in the experiment with HOP-18 NSCLC, with SNB-78 CNS and in the experiment on RXF-631 renal was > 100 µM each time. In addition, the TGI in the experiment with XF 498 CNS and in the experiment on LXFL 529 NSCLC was > 100 µM each time.
With `C/C=C(\CCC1NCCc2c1[nH]c1ccccc21)[Si](C)(C)C` (centres undefined), the GI50 is 5.99 µM and 1.93 µM in the experiment with DMS 273 small cell lung; 5.29 µM and 1.92 µM in the experiment on KM20L2 colon. The TGI in the experiment with DMS 273 small cell lung was 11.3 µM and 4.07 µM; in the experiment with DLD-1 colon, 14.1 µM and 11.3 µM; with KM20L2 colon, 11.7 µM and 4.12 µM; with HOP-18 NSCLC, 50.8 µM and 19.1 µM; with SNB-78 CNS it was 24.5 µM and 11.7 µM; in the experiment with RXF-631 renal, 17.1 µM and 13.9 µM. In addition, the TGI with XF 498 CNS was 6.99 µM and 2.75 µM; in the experiment with LXFL 529 NSCLC, 9.27 µM and 3.2 µM; in the experiment on MDA-N, 3.74 µM.
Turning to `COc1ccc(NC(=O)COC(=O)c2cccc3c(=O)c4ccccc4[nH]c23)cc1`, the TGI in the experiment with DLD-1 colon turned out to be 31.9 µM; with KM20L2 colon, 51.7 µM; in the experiment with HOP-18 NSCLC, 93.8 µM; in the experiment on SNB-78 CNS, 64.2 µM; in the experiment on XF 498 CNS, 36.5 µM; in the experiment with LXFL 529 NSCLC, 43.3 µM.
With `CCOP(=O)(OCC)/C(C#N)=C/c1ccc[nH]1`, the TGI with DMS 273 small cell lung, in the experiment with DLD-1 colon, in the experiment with KM20L2 colon, in the experiment with HOP-18 NSCLC, in the experiment on SNB-78 CNS and with LXFL 529 NSCLC was > 100 µM throughout.
In the case of `COc1ccc2cc3[n+](cc2c1OC)CCc1cc2c(cc1-3)OCO2`, the TGI was 73.7 µM and 49.4 µM in the experiment with DMS 273 small cell lung; > 59.9 µM and 253 µM in the experiment with DLD-1 colon; > 325 µM in the experiment with P388/ADR leukemia; > 92.5 µM and 94.6 µM in the experiment with KM20L2 colon; > 100 µM and 207 µM in the experiment on HOP-18 NSCLC; 69.6 µM with P388 leukemia. Also, the TGI is > 100 µM and 167 µM in the experiment with SNB-78 CNS; 66.6 µM and 31.4 µM with XF 498 CNS; > 74.9 µM in the experiment on LXFL 529 NSCLC; 37.7 µM in the experiment on SN12K1 renal. For the same molecule, in the experiment on DLD-1 colon, the GI50 was 26.2 µM and 54.2 µM.
Take `C/C1=C\CC[C@@]2(C)O[C@@H]2C[C@@H]2[C@H](C/C(C)=C/CC1)OC(=O)C21CCN=N1` (some centres undefined): in the experiment on MDA-N, the GI50 is > 100 µM and the TGI was > 100 µM.
As for `CCOCC(=O)N[C@H]1CCc2cc(OC(=O)COCC)c(OC)c(OC)c2-c2ccc(SC)c(=O)cc21`, the TGI in the experiment with MDA-N amounted to 0.00611 µM.
Regarding `C=CCC12CC(=O)C=C1CCC1(C2)OCCO1` (centres undefined), the TGI in the experiment on DMS 273 small cell lung, in the experiment with DLD-1 colon, with KM20L2 colon, in the experiment with HOP-18 NSCLC, with SNB-78 CNS and in the experiment with RXF-631 renal was > 100 µM throughout. The TGI with LXFL 529 NSCLC was > 100 µM.
For the molecule `N#CCC12CC=CCC1=C(O)C(=O)c1ccc(O)cc12` (centres undefined), the TGI in the experiment on MDA-N is > 100 µM.
For `N#CCCN(CCC#N)c1ccc(/C=N\c2nc(-c3ccccc3)cs2)cc1`, the TGI in the experiment with DMS 273 small cell lung, with DLD-1 colon, in the experiment with KM20L2 colon, with SNB-78 CNS, in the experiment on RXF-631 renal and in the experiment with XF 498 CNS was > 100 µM in each case. The TGI in the experiment on LXFL 529 NSCLC is > 100 µM.
For the molecule `Cc1cc(Cl)ccc1NC(=O)CC1SC(N)=NC1=O` (centres undefined), the TGI with DMS 273 small cell lung, in the experiment on DLD-1 colon, in the experiment with KM20L2 colon, in the experiment on HOP-18 NSCLC, in the experiment on RXF-631 renal and with LXFL 529 NSCLC was > 100 µM in each case.
`CC(=O)OC1(C#N)CC2OC1C1C2N1C(=O)OC(C)(C)C` (centres undefined): the TGI in the experiment on DLD-1 colon, in the experiment on KM20L2 colon, with SNB-78 CNS, with XF 498 CNS and in the experiment with LXFL 529 NSCLC was > 100 µM in each case.
In the case of `Cc1ccc(NC(=O)COC(=O)c2cccc3c(=O)c4ccccc4[nH]c23)cc1`, the TGI in the experiment with DMS 273 small cell lung is 94.9 µM; with DLD-1 colon it was > 100 µM; in the experiment with KM20L2 colon, > 100 µM; in the experiment with HOP-18 NSCLC it was > 100 µM; with SNB-78 CNS it was > 100 µM; in the experiment with RXF-631 renal, > 100 µM. For the same molecule, the figures for the TGI in the experiment on XF 498 CNS and with LXFL 529 NSCLC were 78.3 µM and > 100 µM, respectively.
For the molecule `Cn1c(=O)c2[nH]c(C3CC(=O)CC(c4nc5c([nH]4)c(=O)n(C)c(=O)n5C)N3)nc2n(C)c1=O` (centres undefined), the TGI in the experiment with MDA-N was > 100 µM.
Consider `COC(=O)c1c(C)cc2c(c1O)C1(O)C(=O)c3cc4c(c(O)c3C(=O)C1(OC)C(O)C2)C(=O)C=C(NC1OC(C)C(OC)C(O)C1OC)C4=O` (centres undefined), for which the TGI in the experiment with DMS 273 small cell lung turned out to be 0.468 µM; in the experiment with DLD-1 colon, 0.12 µM; with KM20L2 colon, 0.395 µM; with SNB-78 CNS, 0.324 µM; with XF 498 CNS it was 0.235 µM; with LXFL 529 NSCLC, 0.205 µM.
On to `CN(C)CC(C)(C)C(/C=C/c1ccccc1)=N\Nc1ccccc1`, for which the TGI with DMS 273 small cell lung turned out to be 11.2 µM; in the experiment with DLD-1 colon, 11.6 µM; in the experiment on KM20L2 colon, 0.0605 µM; in the experiment with HOP-18 NSCLC, 73.1 µM; in the experiment on SNB-78 CNS it was 26.8 µM; with LXFL 529 NSCLC it was 0.446 µM.
`O=C1CCCC(=O)C1=C(O)CCCCCCCCCCc1ccccc1`: the TGI with DMS 273 small cell lung, with DLD-1 colon, in the experiment with KM20L2 colon, in the experiment on HOP-18 NSCLC, with SNB-78 CNS and with XF 498 CNS was > 100 µM throughout. For the same molecule, in the experiment with LXFL 529 NSCLC, the TGI is > 100 µM.
`Cc1ccc([N+](=O)[O-])cc1NC(=O)C(=O)Cc1cc(=O)oc2cc(O)ccc12`: the TGI with DLD-1 colon, with KM20L2 colon, in the experiment with HOP-18 NSCLC, in the experiment with SNB-78 CNS, in the experiment with XF 498 CNS and with LXFL 529 NSCLC was > 100 µM throughout.
As for `Cc1cc(NS(=O)(=O)c2ccc(NC(=O)c3cccc4cc5ccccc5nc34)cc2)no1`, the TGI with DMS 273 small cell lung was found to be 32.4 µM; in the experiment on DLD-1 colon, 52.1 µM; in the experiment on KM20L2 colon, 75.1 µM; in the experiment on SNB-78 CNS, 69.6 µM; in the experiment with RXF-631 renal it was 37.5 µM; in the experiment on XF 498 CNS, 33.6 µM. Besides, the TGI with LXFL 529 NSCLC worked out at 31.5 µM.
For `N#CCc1ccc(/C(C#N)=C2/OC(=N)C(c3ccc(CC#N)cc3)C2=O)cc1` (centres undefined), the TGI with DMS 273 small cell lung, in the experiment on DLD-1 colon, in the experiment on KM20L2 colon, with SNB-78 CNS, in the experiment on RXF-631 renal and in the experiment on XF 498 CNS was > 100 µM throughout. The TGI with LXFL 529 NSCLC is > 100 µM.
Take `O=C1C2C(C(=O)N1c1ccccc1)C1(c3ccccc3)OC2(c2ccccc2)c2ccccc21` (centres undefined): the TGI in the experiment with DMS 273 small cell lung, in the experiment with DLD-1 colon, with KM20L2 colon, in the experiment with HOP-18 NSCLC, in the experiment on RXF-631 renal and with LXFL 529 NSCLC was > 100 µM each time.
Regarding `Oc1ccc2c3c1OC1C(=NN=C4CCC5(O)C6Cc7ccc(O)c8c7C5(CCN6CC5CC5)C4O8)CCC4(O)C(C2)N(CC2CC2)CCC314` (centres undefined), the TGI in the experiment with DMS 273 small cell lung was 63.9 µM; in the experiment with DLD-1 colon, > 100 µM; in the experiment on KM20L2 colon, 41.7 µM; with HOP-18 NSCLC, > 100 µM; in the experiment on SNB-78 CNS, > 100 µM; in the experiment on XF 498 CNS it was 34.3 µM. In the experiment with LXFL 529 NSCLC, this molecule registered a TGI of 43.5 µM.
`Cc1[nH]n(-c2ccc(S(=O)(=O)O)cc2)c(=O)c1N=Nc1ccccc1`: in the experiment on MDA-N, the TGI is > 100 µM.
